Reference: PMC3057995, “Potent Anti-Tumor Effect Generated by a Novel Human Papillomavirus (HPV) Antagonist Peptide Reactivating the pRb/E2F Pathway” (PLoS ONE, 2011)

Key:
[1] = system: NIH/3T3 embryonic fibroblast cells; experiment: MTT cell viability assay, NIH 3T3; type: cell-based, mouse; details: NIH 3T3, HPV-negative; data not shown
Text: HPV16-positive SiHa and CaSki cervical carcinoma cells were supplied by China Center for Type Culture Collection (CCTCC). The following cell lines used in this project were from our laboratory: HPV18-positive HeLa cervical carcinoma cells, CNE nasopharyngeal carcinoma cells, HaCat human keratinocyte cells, COS7 (African green monkey SV40-transformed kidney fibroblast cell line), 293T (human kidney epithelial cells), and NIH/3T3 mouse embryonic fibroblast cells. All cells were maintained in a humidified atmosphere of 5% CO2, Dulbecco's modified Eagle's medium (DMEM, pH 7.2), supplemented with 10% fetal calf serum (FCS).
Cell viability was determined with an MTT assay. Briefly, the cells were seeded into 96-well plates at a density of 4–5×10^3 cells/well. The cells were allowed to recover for 24 h before the medium was replaced with DMEM supplemented with peptides at different concentrations. The solvent of the peptides was set as the control. The peptide-supplemented medium was replaced daily and the respective concentrations were maintained. The cells were subjected to an MTT cell proliferation assay at different time points. The plates were incubated at 37°C for 3 h with the addition of 20 µl/well MTT (5 mg/ml). Untransformed MTT in the solution was removed by aspiration. […] The optical density of the formazan solutions was measured by microplate reader at 540 nm.

SiHa cells = experiment: Western blot, SiHa; type: cell-based; details: 80 µM
Method: Western blotting was carried out as described previously, [50]. […] After another 48 h of treatment, the cells were lysed in lysis buffer (Beyotime Institute of Biotechnology, Jiangshu, China) containing PMSF (Sigma Chemical Co., St. Louis, MI, USA) for 30 min at 4°C. The lysate was then centrifuged for 20 min at 13,000 rpm and 4°C. The proteins were then separated through SDS-PAGE and transferred onto the PVDF membrane (Immobion®-P Transfer Membrane, Millipore Corp., Billerica, MA, USA). Membranes were blocked in a Tris-buffered saline with 0.1% Tween-20 (TBS-T) solution with 5% nonfat dry milk and incubated overnight with primary antibodies at 4°C. The immunoreactive signals were detected by HRP-conjugated secondary antibodies (KPL, Gaithersburg, MD, USA) followed by SuperSignal® West Pico Chemiluminescent Substrate (Thermo Scientific, Milford, MA, USA.). Anti-β-actin antibodies were used to control protein loading. For the in vivo studies, tumors were harvested, and the cell lysates were prepared and transferred to a clean Eppendorf tube and centrifuged for 30 min at 14,000 rpm. The supernate was probed by western blotting, as described above.

HPV16E7/pRb interaction = experiment: Co-IP of HPV16 E7 and pRb in Cos7 cells; type: cell-based; details: Cos7 co-transfected, 80 µM Pep-7
Method: For Co-IP, Cos-7 cells seeded in 100 mm plates were co-transfected with HPV16E7-pEYFP-N1 and pRb-pcDNA3.1 using the PEI reagent (Sigma-aldich Chemie GmbH, Steinheim, Germany) described previously. […] Lysate supernate prepared as above were incubated with 10 µl rabbit anti-pRb antibody or mouse anti-flag (negative control) antibody and washed protein G agarose beads (Amersham Biosciences, Little Chalfont, UK) overnight at 4°C under continuous agitation. Beads were subsequently washed four times with the lysis buffer. Bound proteins were eluted by boiling in a Laemmli sample buffer and subjected to western blot assay.

[2] = system: cyclin A, E1 and D1 promoters containing E2F binding sites; experiment: Luciferase reporter assay, SiHa; type: cell-based; details: 80 µM, 24 h
Method: SiHa cells were co-transfected with E2F-responsive luciferase reporter plasmids and siRNA of Rb, p130 and p107, respectively.
The cells were seeded in 12-well plate at a density of 3×10^5 cells/well. The following day, cells were transfected with SiRNA and luciferase reporter plasmids or siRNA alone, respectively, using LipofectAMINE 2000 as described in the manufacturer's protocol (Invitrogen, Carlsbad, CA, USA).
(§1) The reporter assays were performed using Bright-Glo™ Luciferase Assay System (Promega, Madison, WI, USA) according to the manufacturer's instructions. Briefly, cells were plated in 12-well plates at a density of 1.5×10^5 cells/well. The following day, cells were transfected with reporter constructs. […] Thereafter, cell lysates were collected for reporter assays. The luciferase reporter activity of each sample was normalized against the corresponding protein content prior to calculation of the fold induction value relative to the controls. Each sample was determined in triplicate. The results represent means ± SE from three experiment runs.

[3] = system: cyclin A, E1 and D1 promoters containing E2F binding sites; experiment: Luciferase reporter assay, CaSki; type: cell-based; details: 80 µM, 24 h, means ± SE, three experiments
Method: as §1

## SACPKGLDWCGG (C&C bridged by disulfide bonds) (disulfide) [Pep-7]
[1]
  cell proliferation (MTT): negligible effect
SiHa cells; SiHa and CaSki (Fig. 4D)
  p107 and p130 protein levels: did not exhibit an effect
SiHa cells; SiHa, 48 h
  HPV16E7 protein level: reduced
  cyclins A, D1 and E1 protein expression: significantly reduced
  pRb protein level: increased
HPV16E7/pRb interaction
  co-immunoprecipitation of HPV16E7 with pRb: HPV16E7 could not be immunoprecipitated by the pRb antibodies
[2]; means ± SE, three experiments
  activities of cyclin A, E1 and D1 promoters: remarkable down-regulation
[2]; p130 or p107 siRNA
  influence of p130 or p107 knock-down on Pep-7 suppression of promoters: did not affect the influence of Pep-7 on these promoters
[2]; pRb siRNA
  influence of pRb knock-down on Pep-7 suppression of promoters: abrogated the suppression of cyclin A, E1 and D1 promoter activities by Pep-7
[3]
  activities of cyclin A, E1 and D1 promoters: remarkable down-regulation
